Data set [1] is described as follows: logP at pH 3.5, given with the characterisation data. The format is physicochemical. The settings on record: pH3.5.
Data set [2] concerns Fusarium proliferatum. Nature of the data set: microbe, parasite or virus in culture. The format is cell-based. The settings on record: 120 h, read-out: inhibition of Fumonisin FB1 production.
Data set [3] concerns Alternaria solani. Kind of data set: Alternaria test (tomato) / preventive. The format is in vivo. The conditions noted are these: 500ppm of active ingredient, evaluated 7 days after the inoculation. As to the method: (§1) To produce a suitable preparation of active compound, 1 part by weight of active compound is mixed with the stated amounts of solvent and emulsifier, and the concentrate is diluted with water to the desired concentration.
To test for preventive activity, young plants are sprayed with the preparation of active compound at the stated rate of application. One day after this treatment, the plants are inoculated with an aqueous spore suspension of Alternaria solani. The plants remain for one day in an incubation cabinet at approximately 22°C and a relative atmospheric humidity of 100%. Then the plants are placed in an incubation cabinet at approximately 20°C and a relative atmospheric humidity of 96%.
The test is evaluated 7 days after the inoculation. 0% means an efficacy which corresponds to that of the control while an efficacy of 100% means that no disease is observed.

Data set [4] relates to Fusarium graminearum. Nature of the data set: microbe, parasite or virus in culture. The format is cell-based.
Data set [5] has as its system Pyrenophora teres. Kind of data set: Pyrenophora test (barley) / preventive. The format is in vivo. The settings on record: 500ppm of active ingredient, evaluated 7-9 days after the inoculation. As to the method: as §1
To test for preventive activity, young plants are sprayed with the preparation of active compound at the stated rate of application. One day after this treatment, the plants are inoculated with an aqueous spore suspension of Pyrenophora teres. The plants remain for 48 hours in an incubation cabinet at 22°C and a relative atmospheric humidity of 100%. Then the plants are placed in a greenhouse at a temperature of approximately 20°C and a relative atmospheric humidity of approximately 80%.
The test is evaluated 7-9 days after the inoculation. 0% means an efficacy which corresponds to that of the control while an efficacy of 100% means that no disease is observed.

The subject of data set [6] is Fusarium graminearum. The format is in vivo. The settings on record: barley, preventive, 1000ppm of active ingredient, evaluated 5 days after the inoculation.
Data set [7] has as its system Venturia inaequalis. Kind of data set: Venturia test (apples) / protective. The format is in vivo. The settings on record: 100ppm of active ingredient, evaluated 10 days after the inoculation. The method, then: as §1
To test for protective activity, young plants are sprayed with the preparation of active compound at the stated rate of application. After the spray coating has dried on, the plants are inoculated with an aqueous conidia suspension of the causal agent of apple scab (Venturia inaequalis) and then remain for 1 day in an incubation cabinet at approximately 20°C and a relative atmospheric humidity of 100 %.
The plants are then placed in a greenhouse at approximately 21°C and a relative atmospheric humidity of approximately 90 %.
The test is evaluated 10 days after the inoculation. 0% means an efficacy which corresponds to that of the control, while an efficacy of 100% means that no disease is observed.

Data set [8] concerns Botrytis cinerea. Kind of data set: Botrytis test (beans) / protective. The format is in vivo. The settings on record: 250ppm of active ingredient, lesion size 2 days after the inoculation. As to the method: as §1
To test for protective activity, young plants are sprayed with the preparation of active compound. After the spray coating has dried on, 2 small pieces of agar covered with growth of Botrytis cinerea are placed on each leaf. The inoculated plants are placed in a darkened chamber at 20°C and a relative atmospheric humidity of 100%.
2 days after the inoculation, the size of the lesions on the leaves is evaluated. 0% means an efficacy which corresponds to that of the control, while an efficacy of 100% means that no disease is observed.

Here are results for two molecules from EP2338890A1, “4,7-Diazaindole derivatives and their use as fungicides” (Bayer CropScience AG, priority 2009, dated 2011).

Where two headings read alike, the source gives them in different places.

As usually defined, the logD is lipophilicity at a set pH, counting ionised and neutral species. Read a high logD as higher lipophilicity.

`Fc1ccc(-c2c(-c3ccncc3)[nH]c3nccnc23)cc1` [Compound 1, 7-(4-fluorophenyl)-6-(pyridin-4-yl)-5H-Pyrrolo[2,3-b]pyrazine] returned a logD in data set [1] of 1.33. Moreover, the inhibition at 50 µM in data set [2] is above 80%; in data set [4] (72 h, read-out: Growth inhibition of Fusarium graminearum) it was above 80%; in data set [4] (168 h, read-out: inhibition of DON/AcDON) it was above 80%. Also, the efficacy in data set [3] and in data set [5] was at least 70% throughout.

Consider `C#CCn1c(-c2ccncc2)c(-c2ccc(F)cc2)c2nccnc21` [Compound 2, 7-(4-fluorophenyl)-5-(prop-2-ylyl)-6-(pyridin-4-yl)-5H-pyrrolo[2,3-b]pyrazine], for which the logD in data set [1] worked out at 2.22. Also, the inhibition at 50 µM in data set [2] is above 80%. The efficacy in data set [6], in data set [3], in data set [7], in data set [5] and in data set [8] was at least 70% in each case.
